{"source": "ChEMBL document CHEMBL3525908", "about": "“Chronic doxorubicin cardiotoxicity modulates cardiac cytochrome P450-mediated arachidonic acid metabolism in rats” (Drug Metab Dispos, 2012)", "key": {"[1]": {"test_system": "Rattus norvegicus", "experiment": "Toxicity in Sprague-Dawley rat assessed as CYP4F4 gene expression in liver administered as cumulative dose of 15 mg/kg, ip divided into 6 injections for 2 weeks followed by compound washout period of 14 days by RT-PCR analysis relative to control", "type": "organism-based", "design": "dose 15 mg/kg, route intraperitoneal", "settings": "in vivo, 336 h; call rule not given here"}, "[2]": {"test_system": "Rattus norvegicus", "experiment": "Toxicity in Sprague-Dawley rat assessed as induction of IL-6 gene expression in kidney administered as cumulative dose of 15 mg/kg, ip divided into 6 injections for 2 weeks followed by compound washout period of 14 days by RT-PCR analysis relative to control", "type": "organism-based", "design": "dose 15 mg/kg, route intraperitoneal", "settings": "336 h"}, "[3]": {"test_system": "CYP4F5", "experiment": "Toxicity in Sprague-Dawley rat assessed as induction of CYP4F5 gene expression in kidney administered as cumulative dose of 15 mg/kg, ip divided into 6 injections for 2 weeks followed by compound washout period of 14 days by RT-PCR analysis relative to control", "type": "organism-based", "design": "dose 15 mg/kg, route intraperitoneal"}, "[4]": {"test_system": "Rattus norvegicus", "experiment": "Toxicity in Sprague-Dawley rat assessed as CYP1A1 gene expression in kidney administered as cumulative dose of 15 mg/kg, ip divided into 6 injections for 2 weeks followed by compound washout period of 14 days by RT-PCR analysis relative to control", "type": "organism-based", "design": "dose 15 mg/kg, route intraperitoneal", "settings": "in vivo, 336 h"}, "[5]": {"test_system": "Rattus norvegicus", "experiment": "Toxicity in Sprague-Dawley rat assessed as CYP2B1 gene expression in kidney administered as cumulative dose of 15 mg/kg, ip divided into 6 injections for 2 weeks followed by compound washout period of 14 days by RT-PCR analysis relative to control", "type": "organism-based", "design": "dose 15 mg/kg, route intraperitoneal", "settings": "in vivo, 336 h"}, "[6]": {"test_system": "Rattus norvegicus", "experiment": "Toxicity in Sprague-Dawley rat assessed as CYP4A1 gene expression in kidney administered as cumulative dose of 15 mg/kg, ip divided into 6 injections for 2 weeks followed by compound washout period of 14 days by RT-PCR analysis relative to control", "type": "organism-based", "design": "dose 15 mg/kg, route intraperitoneal", "settings": "in vivo, 336 h"}, "[7]": {"test_system": "Rattus norvegicus", "experiment": "Toxicity in Sprague-Dawley rat assessed as CYP4A3 gene expression in kidney administered as cumulative dose of 15 mg/kg, ip divided into 6 injections for 2 weeks followed by compound washout period of 14 days by RT-PCR analysis relative to control", "type": "organism-based", "design": "dose 15 mg/kg, route intraperitoneal", "settings": "in vivo, 336 h"}, "[8]": {"test_system": "Rattus norvegicus", "experiment": "Toxicity in Sprague-Dawley rat assessed as CYP4F1 gene expression in kidney administered as cumulative dose of 15 mg/kg, ip divided into 6 injections for 2 weeks followed by compound washout period of 14 days by RT-PCR analysis relative to control", "type": "organism-based", "design": "dose 15 mg/kg, route intraperitoneal", "settings": "in vivo, 336 h"}, "[9]": {"test_system": "Rattus norvegicus", "experiment": "Toxicity in Sprague-Dawley rat assessed as CYP4F4 gene expression in kidney administered as cumulative dose of 15 mg/kg, ip divided into 6 injections for 2 weeks followed by compound washout period of 14 days by RT-PCR analysis relative to control", "type": "organism-based", "design": "dose 15 mg/kg, route intraperitoneal", "settings": "in vivo, 336 h"}, "[10]": {"test_system": "EPHX2", "experiment": "Cardiotoxicity in Sprague-Dawley rat assessed as increase in EPHX2 gene expression level administered as cumulative dose of 15 mg/kg, ip divided into 6 injections for 2 weeks followed by compound washout period of 14 days by RT-PCR analysis relative to control", "type": "toxicity, organism-based", "design": "dose 15 mg/kg, route intraperitoneal", "settings": "heart"}, "[11]": {"test_system": "H9c2", "experiment": "Cytotoxicity against rat H9c2 cells assessed as reduction in ANP mRNA expression at 1 uM after 6 hrs in presence of t-AUCB", "type": "cell-based", "settings": "h9c2, 6 h"}, "[12]": {"test_system": "H9c2", "experiment": "Cytotoxicity against rat H9c2 cells assessed as reduction in BNP mRNA expression at 1 uM after 6 hrs in presence of HET0016", "type": "cell-based", "settings": "h9c2, 6 h"}, "[13]": {"test_system": "Rattus norvegicus", "experiment": "(§1) Induction of CYP450-mediated arachidonic acid metabolism in Sprague-Dawley rat heart microsomes assessed as 5,6-EET formation administered as cumulative dose of 15 mg/kg, ip divided into 6 injections for 2 weeks followed by compound washout period of 14 days by LC-ESI-MS analysis relative to control", "type": "ADME, organism-based", "design": "dose 15 mg/kg, route intraperitoneal", "settings": "336 h"}, "[14]": {"test_system": "Rattus norvegicus", "experiment": "Induction of CYP450-mediated arachidonic acid metabolism in Sprague-Dawley rat heart microsomes assessed as 8,9-EET formation administered as cumulative dose of 15 mg/kg, ip divided into 6 injections for 2 weeks followed by compound washout period of 14 days by LC-ESI-MS analysis relative to control", "type": "ADME, organism-based", "design": "dose 15 mg/kg, route intraperitoneal", "settings": "336 h"}, "[15]": {"test_system": "Rattus norvegicus", "experiment": "as §1, with “14,15-EET” for “5,6-EET”", "type": "ADME, organism-based", "design": "dose 15 mg/kg, route intraperitoneal", "settings": "336 h"}, "[16]": {"test_system": "CYP1B1", "experiment": "Toxicity in Sprague-Dawley rat assessed as induction of CYP1B1 gene expression in liver administered as cumulative dose of 15 mg/kg, ip divided into 6 injections for 2 weeks followed by compound washout period of 14 days by RT-PCR analysis relative to control", "type": "organism-based", "design": "dose 15 mg/kg, route intraperitoneal"}, "[17]": {"test_system": "CYP4F5", "experiment": "Toxicity in Sprague-Dawley rat assessed as induction of CYP4F5 gene expression in liver administered as cumulative dose of 15 mg/kg, ip divided into 6 injections for 2 weeks followed by compound washout period of 14 days by RT-PCR analysis relative to control", "type": "organism-based", "design": "dose 15 mg/kg, route intraperitoneal"}, "[18]": {"test_system": "Rattus norvegicus", "experiment": "Toxicity in Sprague-Dawley rat assessed as CYP2E1 gene expression in liver administered as cumulative dose of 15 mg/kg, ip divided into 6 injections for 2 weeks followed by compound washout period of 14 days by RT-PCR analysis relative to control", "type": "organism-based", "design": "dose 15 mg/kg, route intraperitoneal", "settings": "in vivo, 336 h"}, "[19]": {"test_system": "Rattus norvegicus", "experiment": "Toxicity in Sprague-Dawley rat assessed as CYP4A1 gene expression in liver administered as cumulative dose of 15 mg/kg, ip divided into 6 injections for 2 weeks followed by compound washout period of 14 days by RT-PCR analysis relative to control", "type": "organism-based", "design": "dose 15 mg/kg, route intraperitoneal", "settings": "in vivo, 336 h"}, "[20]": {"test_system": "CYP2E1", "experiment": "Cardiotoxicity in Sprague-Dawley rat assessed as increase in CYP2E1 gene expression level administered as cumulative dose of 15 mg/kg, ip divided into 6 injections for 2 weeks followed by compound washout period of 14 days by RT-PCR analysis relative to control", "type": "toxicity, organism-based", "design": "dose 15 mg/kg, route intraperitoneal", "settings": "heart"}, "[21]": {"test_system": "Rattus norvegicus", "experiment": "Cardiotoxicity in Sprague-Dawley rat assessed as increase in Bax gene expression level administered as cumulative dose of 15 mg/kg, ip divided into 6 injections for 2 weeks followed by compound washout period of 14 days by RT-PCR analysis relative to control", "type": "toxicity, organism-based", "design": "dose 15 mg/kg, route intraperitoneal", "settings": "in vivo, 336 h"}, "[22]": {"test_system": "Rattus norvegicus", "experiment": "Cardiotoxicity in Sprague-Dawley rat assessed as increase in IL-6 gene expression level administered as cumulative dose of 15 mg/kg, ip divided into 6 injections for 2 weeks followed by compound washout period of 14 days by RT-PCR analysis relative to control", "type": "toxicity, organism-based", "design": "dose 15 mg/kg, route intraperitoneal", "settings": "in vivo, 336 h"}, "[23]": {"test_system": "Rattus norvegicus", "experiment": "Cardiotoxicity in Sprague-Dawley rat assessed as increase in alpha-MHC gene expression level administered as cumulative dose of 15 mg/kg, ip divided into 6 injections for 2 weeks followed by compound washout period of 14 days by RT-PCR analysis relative to control", "type": "toxicity, organism-based", "design": "dose 15 mg/kg, route intraperitoneal", "settings": "in vivo, 336 h"}, "[24]": {"test_system": "Rattus norvegicus", "experiment": "Cardiotoxicity in Sprague-Dawley rat assessed as increase in CYP1B1 gene expression level administered as cumulative dose of 15 mg/kg, ip divided into 6 injections for 2 weeks followed by compound washout period of 14 days by RT-PCR analysis relative to control", "type": "toxicity, organism-based", "design": "dose 15 mg/kg, route intraperitoneal", "settings": "in vivo, 336 h"}, "[25]": {"test_system": "Rattus norvegicus", "experiment": "Cardiotoxicity in Sprague-Dawley rat assessed as increase in CYP2B1 gene expression level administered as cumulative dose of 15 mg/kg, ip divided into 6 injections for 2 weeks followed by compound washout period of 14 days by RT-PCR analysis relative to control", "type": "toxicity, organism-based", "design": "dose 15 mg/kg, route intraperitoneal", "settings": "in vivo, 336 h"}, "[26]": {"test_system": "CYP4A3", "experiment": "Cardiotoxicity in Sprague-Dawley rat assessed as increase in CYP4A3 gene expression level administered as cumulative dose of 15 mg/kg, ip divided into 6 injections for 2 weeks followed by compound washout period of 14 days by RT-PCR analysis relative to control", "type": "toxicity, organism-based", "design": "dose 15 mg/kg, route intraperitoneal", "settings": "heart"}}, "data": [{"smiles": "COc1cccc2c1C(=O)c1c(O)c3c(c(O)c1C2=O)C[C@@](O)(C(=O)CO)C[C@@H]3O[C@H]1C[C@H](N)[C@H](O)[C@H](C)O1", "note": "[DOXORUBICIN]", "values": [{"measurement": "Activity", "setting": "[1]", "result": "Non-toxic"}, {"measurement": "fold induction at 15 mg/kg", "setting": "[2]", "result": 4.7}, {"measurement": "fold induction at 336 h", "setting": "[3]", "result": 1.7}, {"measurement": "Activity", "setting": "[4]", "result": "Non-toxic"}, {"measurement": "Activity", "setting": "[5]", "result": "Non-toxic"}, {"measurement": "Activity", "setting": "[6]", "result": "Non-toxic"}, {"measurement": "Activity", "setting": "[7]", "result": "Non-toxic"}, {"measurement": "Activity", "setting": "[8]", "result": "Non-toxic"}, {"measurement": "Activity", "setting": "[9]", "result": "Non-toxic"}, {"measurement": "fold induction at 336 h", "setting": "[10]", "result": 1.9}, {"measurement": "Activity", "setting": "[11]", "result": "Toxic"}, {"measurement": "Activity", "setting": "[12]", "result": "Toxic"}, {"measurement": "Activity", "setting": "[13]", "result": "Active"}, {"measurement": "Activity", "setting": "[14]", "result": "Active"}, {"measurement": "Activity", "setting": "[15]", "result": "Active"}, {"measurement": "fold induction at 336 h", "setting": "[16]", "result": 2.5}, {"measurement": "fold induction at 336 h", "setting": "[17]", "result": 1.8}, {"measurement": "Activity", "setting": "[18]", "result": "Non-toxic"}, {"measurement": "Activity", "setting": "[19]", "result": "Non-toxic"}, {"measurement": "fold induction at 336 h", "setting": "[20]", "result": 1.8}, {"measurement": "Ratio", "setting": "[21]", "result": 1.9}, {"measurement": "Ratio", "setting": "[22]", "result": 1.8}, {"measurement": "Ratio", "setting": "[23]", "result": 1.6}, {"measurement": "Activity", "setting": "[24]", "result": "Non-toxic"}, {"measurement": "Activity", "setting": "[25]", "result": "Non-toxic"}, {"measurement": "fold induction at 336 h", "setting": "[26]", "result": 2}]}]}
